Test results taken from US20170182047A9, “Post-Translational Regulation of Catalytic Activities of Cytochrome P450 46A1 and Uses Thereof” (The Board of Regents of the University of Texas System, priority 2007, published 2017).
Structures can show the parent of a compound that is named as a salt. Where two headings read alike, the source gives them in different places.

Key:
[1] = target: T1, full-length CYP46A1 (Homo sapiens, UniProt Q9Y6A2); assay: Inhibition/stimulation of cholesterol hydroxylase activity at fixed 43 μM test compound; format: biochemical; conditions: for CHO hydroxylation: remaining activity, None = 100, 43 μM added steroid; for inhibition of cholesterol hydroxylation (in words): FIG. 4A-4C; for Activity: cholesterol hydroxylation by CYP46A1, % of no compound; for inhibition at 43 µM: read-out: inhibition of the CYP46A1
[2] = target: T2, CYP46A1 (Homo sapiens, UniProt Q9Y6A2); assay: In vitro IC50 and Ki for CYP46A1-catalysed hydroxylation; format: biochemical; design: Recombinant full-length human CYPs 46A1 and 27A1 and bovine CYP11A1 were expressed and purified; made in house; conditions: Ki = IC50/2 assuming competitive inhibition; 5.4 μM cholesterol (at Km); read-out: Ki
Procedure: Cholesterol hydroxylation by CYP46A1 was assayed for 20 min at 37° C. in 1 ml of 50 mM KPi, pH 7.2, containing 100 mM NaCl, 0.02% Cymal 6, 40 μg dilauroylglycerol-3-phosphatidylcholine and 2U of catalase. […] The enzymatic reaction was initiated by NADPH (final 1 mM) and terminated by vortexing with 2 ml of CH2Cl2. The organic phase was isolated, evaporated, dissolved in methanol, and subjected to HPLC. […] In addition, the Ki for cholesterol 24-hydroxylation was estimated assuming a model of competitive inhibition.
Target sequence in this assay (Q9Y6A2 whole entry): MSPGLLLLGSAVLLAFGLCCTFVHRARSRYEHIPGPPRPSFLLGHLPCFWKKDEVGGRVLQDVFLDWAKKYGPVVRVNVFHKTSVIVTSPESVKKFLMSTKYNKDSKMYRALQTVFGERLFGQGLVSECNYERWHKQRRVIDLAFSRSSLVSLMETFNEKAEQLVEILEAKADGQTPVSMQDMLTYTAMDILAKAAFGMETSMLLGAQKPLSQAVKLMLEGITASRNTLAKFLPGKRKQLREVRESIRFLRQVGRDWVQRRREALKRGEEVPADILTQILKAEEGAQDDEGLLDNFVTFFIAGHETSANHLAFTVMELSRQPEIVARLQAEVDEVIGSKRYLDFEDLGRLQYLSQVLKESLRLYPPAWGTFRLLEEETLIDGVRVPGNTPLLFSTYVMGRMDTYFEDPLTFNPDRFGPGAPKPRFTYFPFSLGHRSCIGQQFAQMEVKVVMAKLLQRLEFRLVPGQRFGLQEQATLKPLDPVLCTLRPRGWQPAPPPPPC

[3] = target: T2, CYP46A1; assay: Spectral binding studies; design: fused on or other part: C-terminal 4xHis tag (dH); conditions: Table 2
Procedure: (§1) Titrations of CYP46A1dH were carried out in 50 mM KPi, pH 7.2, containing 100 mM NaCl and 0.02% Cymal-6. Steroids were added from 0.2-5 mM stocks in 2.5-45% aqueous 2-hydroxypropyl-p-cyclodextrin; clobenpropit, thioperamide, phenacetin, acetaminophen, 4′-(2-hydroxyethoxy)-acetanilide, quinine, quinidine, lansoprazole, and dapsone were dissolved in water, and tranylcypromine in 50% MetOH. The Kd and maximal absorbance change were estimated by non-linear least squares fitting using the quadratic form of the single-site binding equation (30).
Target sequence in this assay (Q9Y6A2 whole entry): as above

[4] = target: Δ(2-50)CYP46A1dH (Homo sapiens, UniProt Q9Y6A2); assay: Kinetic studies, reconstituted system with cytochrome P450 reductase, truncated CYP46A1; conditions: compound as substrate; for kcat: Δ(2-50) CYP46A1 with C-terminal 4x His-tag, 37° C.
Procedure: (§2) The ability of recombinant CYP46A1 to metabolize CH-3S was tested using the reconstituted with cytochrome P450 reductase in vitro system. After termination of the enzyme reaction, the substrate and products were extracted, solvolyzed, converted into trimethylsilyl ethers and analyzed by gas chromatography-mass spectrometry as described (23). […] The reaction conditions were optimized for the formation of only one product.
(§3) The reconstituted system (1 ml) contained 0.1-0.25 μM P450, 0.5 μM NADPH cytochrome P450 oxidoreductase, varying concentrations of cold substrate (1-75 μM), 250,000 cpm of radiolabeled substrate, and 2U of catalase. […] The organic phase was isolated, evaporated, dissolved in acetonitrile, and subjected to HPLC. […] Substrate metabolism was <18% and linear with reaction time and enzyme concentration.

[5] = target: T1, full-length CYP46A1; assay: Kinetic studies, reconstituted system with cytochrome P450 reductase, full-length CYP46A1; conditions: compound as substrate; for kcat: Full-length CYP46A1 with C-terminal 4x His-tag, 37° C.
Procedure: as §2, §3

[6] = target: T2, CYP46A1; assay: Spectral binding studies; design: 4×His (C)
Procedure: as §1
Target sequence in this assay (Q9Y6A2 with tags, fused parts or gaps): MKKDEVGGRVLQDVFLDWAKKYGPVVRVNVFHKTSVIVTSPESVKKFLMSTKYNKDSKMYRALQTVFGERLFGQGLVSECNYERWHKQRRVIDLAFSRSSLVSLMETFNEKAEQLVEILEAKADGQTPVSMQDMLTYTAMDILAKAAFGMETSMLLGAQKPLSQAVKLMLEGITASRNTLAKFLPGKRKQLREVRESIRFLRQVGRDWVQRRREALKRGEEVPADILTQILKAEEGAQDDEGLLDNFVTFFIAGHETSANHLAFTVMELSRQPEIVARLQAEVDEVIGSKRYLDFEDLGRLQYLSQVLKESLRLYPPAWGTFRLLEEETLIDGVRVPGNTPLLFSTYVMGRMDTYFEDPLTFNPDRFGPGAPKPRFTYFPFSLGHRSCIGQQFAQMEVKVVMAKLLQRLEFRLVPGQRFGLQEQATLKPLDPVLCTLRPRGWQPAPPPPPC

[7] = 2.7 μM cholesterol, 43 μM compound
[8] = 2.7 μM cholesterol, 43 μM compound, FIG. 4B, 4D, 4E

T1 sequence (Q9Y6A2 whole entry): as the sequence (Q9Y6A2 whole entry) above
Chain of Δ(2-50)CYP46A1dH (Q9Y6A2 with tags, fused parts or gaps): as the sequence (Q9Y6A2 with tags, fused parts or gaps) above

## DHEA
[1]; 2.7 μM cholesterol
  CHO hydroxylation: 58 ± 3%

## Clc1ccc(-c2c[nH]cn2)cc1 [4-CPi, 4-(4-chlorophenyl)imidazole]
[1]; [7]
  inhibition of cholesterol hydroxylation (in words): significant inhibition

## CNC(=C[N+](=O)[O-])NCCSCc1csc(CN(C)C)n1 [nizatidine]
[1]; [7]
  inhibition of cholesterol hydroxylation (in words): inhibited cholesterol hydroxylation

## Cc1cccc(C)c1OCC(C)N (stereo not shown) [Mexiletine]
[1]; 43 μM compound
  Activity: 107 ± 3%

## testosterone sulfate [Testosterone-SO4]
[1]; 2.7 μM cholesterol
  CHO hydroxylation: 40 ± 2%

## pregnenolone sulfate [Pregnenolone-SO4]
[1]; 2.7 μM cholesterol
  CHO hydroxylation: 8 ± 2%
[2]
  Ki: 2500 nM

## CC(=O)[C@H]1CC[C@H]2[C@@H]3CC=C4C[C@@H](O)CC[C@]4(C)[C@H]3CC[C@]12C [Pregnenolone]
[3]
  Spectral Kd: Not determined, no spectral
[1]; 2.7 μM cholesterol
  CHO hydroxylation: 32 ± 1%

## CC(=O)Nc1ccc(OCCO)cc1 [Phenacetin analog 1, 4′-(2-hydroxyethoxy)-acetanilide]
[1]; 43 μM compound
  increase (stimulation) of cholesterol 24-hydroxylation: 45%
  Activity: 145 ± 5%

## CC(C)[C@@H](O)CC[C@@H](C)[C@H]1CC[C@H]2[C@@H]3CC=C4C[C@@H](O)CC[C@]4(C)[C@H]3CC[C@]12C [24OH—CH, 24S-hydroxycholesterol]
[4]; Δ(2-50) CYP46A1
  Km: 1.5 µM
[4]
  kcat: 0.0142 s⁻¹
[5]; Full-length CYP46A1
  Km: 3.9 µM
[5]
  kcat: 0.0153 s⁻¹

## NC(N)=Nc1nc(CSCCC(N)=NS(N)(=O)=O)cs1 [famotidine]
[1]; [7]
  inhibition of cholesterol hydroxylation (in words): inhibited cholesterol hydroxylation

## C[C@]12CC[C@H]3[C@@H](CCC4=CC(=O)CC[C@@]43C)[C@@H]1CC[C@@H]2O [Testosterone]
[1]; 2.7 μM cholesterol
  CHO hydroxylation: 49 ± 4%

## CN/C(=N/CCSCc1nc[nH]c1C)NC#N [cimetidine]
[1]; [8]
  inhibition at 43 µM: > 90%

## estradiol sulfate [Estradiol-SO4]
[1]; 2.7 μM cholesterol
  CHO hydroxylation: 27 ± 2%

## Acetaminophen
[1]; 43 μM compound
  Activity: 132 ± 4%

## CC(C)CCC[C@@H](C)[C@H]1CC[C@H]2[C@@H]3CC=C4C[C@@H](OS(=O)(=O)O)CC[C@]4(C)[C@H]3CC[C@]12C [Cholesterol-SO4, cholesterol sulfate]
[3]
  Kd: 50 ± 3 nM
[6]
  Kd: 7 nM
[4]
  kcat: 0.0417 s⁻¹
[5]
  kcat: 0.00767 s⁻¹

## CC(C)CCC[C@@H](C)[C@H]1CC[C@H]2[C@@H]3CC=C4C[C@@H](O)CC[C@]4(C)[C@H]3CC[C@]12C [Cholesterol]
[3]
  Kd: 670 ± 20 nM
[1]; 2.7 μM cholesterol
  CHO hydroxylation: 27 ± 3%
[6]; Δ(2-50)CYP46A1dH, read-out: estimated Kd
  Kd: 100 nM

## S=C(NC1CCCCC1)N1CCC(c2cnc[nH]2)CC1 [thioperamide]
[1]; [7]
  inhibition of cholesterol hydroxylation (in words): inhibited cholesterol hydroxylation

## C[C@]12CC[C@@H]3c4ccc(O)cc4CC[C@H]3[C@@H]1CC[C@@H]2O [Estradiol]
[1]; 2.7 μM cholesterol
  CHO hydroxylation: 32 ± 3%

## CCOc1ccc(NC(C)=O)cc1 [Phenacetin]
[1]; 43 μM compound
  Activity: 135 ± 5%

## Clc1ccccc1C(c1ccccc1)(c1ccccc1)n1ccnc1 [clotrimazole]
[1]; [7]
  inhibition of cholesterol hydroxylation (in words): significant inhibition

## NC(=NCc1ccc(Cl)cc1)SCCCc1cnc[nH]1 [clobenpropit]
[1]
  inhibition at 43 µM: > 90%

## CNC(=C[N+](=O)[O-])NCCSCc1ccc(CN(C)C)o1 [ranitidine]
[1]; [8]
  inhibition at 43 µM: > 90%

## DHEA sulfate [DHEA-SO4]
[1]; 2.7 μM cholesterol
  CHO hydroxylation: 33 ± 3%
